“And” between values parts separate entries of the source, which are not always exact repeats. Equal values may be shown once. Toxic doses and inconclusive results are not listed. Rule as the data show it: active = T/C of 150% or more; inactive = T/C below 125%.
Test system: L1210 leukemia ip in BDF1 mice, survival T/C
Test: NCI In Vivo Anticancer Drug Screen. Data for tumor model L1210 Leukemia (intraperitoneal) in B6D2F1 (BDF1) mice
Details: endpoint: mean survival time, higher = longer survival
Method in brief: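 Each compound was tested against a transplantable tumor grown in mice. The endpoint was survival, with treated animals benchmarked against vehicle controls as a simple ratio.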

[1] = dose: 100.0 mg/kg/injection, schedule: Q01DX009 (ip), vehicle: saline with Tween-80
[2] = dose: 100.0 mg/kg/injection, schedule: Q04DX003 (ip), vehicle: saline with Tween-80
[3] = dose: 200.0 mg/kg/injection, schedule: Q01DX009 (ip), vehicle: saline with Tween-80
[4] = dose: 100.0 mg/kg/injection, schedule: Q01DX001 (ip), vehicle: saline
[5] = dose: 100.0 mg/kg/injection, schedule: Q01DX009 (ip), vehicle: saline
[6] = dose: 200.0 mg/kg/injection, schedule: Q01DX001 (ip), vehicle: saline
[7] = dose: 200.0 mg/kg/injection, schedule: Q01DX009 (ip), vehicle: saline
[8] = dose: 400.0 mg/kg/injection, schedule: Q01DX001 (ip), vehicle: saline
[9] = dose: 400.0 mg/kg/injection, schedule: Q01DX009 (ip), vehicle: saline
[10] = dose: 100.0 mg/kg/injection, schedule: Q04DX003 (ip), vehicle: saline
[11] = dose: 200.0 mg/kg/injection, schedule: Q04DX003 (ip), vehicle: saline
[12] = dose: 100.0 mg/kg/injection, schedule: Q01DX001 (ip), vehicle: other
[13] = dose: 200.0 mg/kg/injection, schedule: Q01DX001 (ip), vehicle: other
[14] = dose: 400.0 mg/kg/injection, schedule: Q01DX001 (ip), vehicle: other
[15] = dose: 400.0 mg/kg/injection, schedule: Q04DX003 (ip), vehicle: saline
[16] = dose: 75.0 mg/kg/injection, schedule: Q01DX001 (ip), vehicle: saline
[17] = dose: 150.0 mg/kg/injection, schedule: Q01DX001 (ip), vehicle: saline

Measured: T/C

O=C(COC1CCCCC1)OC1CCCCC1
inactive: [1] 95 % of control | [2] 98 % of control | [3] 96 % of control | dose: 400.0 mg/kg/injection, schedule: Q01DX009 (ip), vehicle: saline with Tween-80 94 % of control | dose: 400.0 mg/kg/injection, schedule: Q04DX003 (ip), vehicle: saline with Tween-80 86 % of control

COC(=O)C1C(C(=O)OC)C2C3OC(=O)C(C2C(=O)OC)C1C3C (configuration not stated)
inactive: [4] 103 % of control | [5] 100 % of control | [6] 98 % of control | [7] 103 % of control | [8] 101 % of control | [9] 87 % of control

COc1ccc(Cl)cc1/C=C/C=N/NC(=O)c1cccc(C)c1O
inactive: dose: 75.0 mg/kg/injection, schedule: Q01DX001 (ip), vehicle: carboxymethylcellulose (CMC) 86 % of control | dose: 150.0 mg/kg/injection, schedule: Q01DX001 (ip), vehicle: carboxymethylcellulose (CMC) 89 % of control | dose: 300.0 mg/kg/injection, schedule: Q01DX001 (ip), vehicle: carboxymethylcellulose (CMC) 86 % of control

Fc1cccc(CSc2ncnc3nc[nH]c23)c1
inactive: dose: 12.5 mg/kg/injection, schedule: Q01DX009 (ip), vehicle: saline 104 % of control | dose: 25.0 mg/kg/injection, schedule: Q01DX009 (ip), vehicle: saline 119 % of control | dose: 50.0 mg/kg/injection, schedule: Q01DX009 (ip), vehicle: saline 120 % of control | dose: 175.0 mg/kg/injection, schedule: Q01DX001 (ip), vehicle: saline 105 % of control and 116 % of control | dose: 265.0 mg/kg/injection, schedule: Q01DX001 (ip), vehicle: saline 115 % of control | [8] 119 % of control

C#CCN1CCCC1
inactive: dose: 12.5 mg/kg/injection, schedule: Q04DX003 (ip), vehicle: saline 92 % of control | dose: 25.0 mg/kg/injection, schedule: Q04DX003 (ip), vehicle: saline 92 % of control | dose: 50.0 mg/kg/injection, schedule: Q04DX003 (ip), vehicle: saline 95 % of control

O=[N+]([O-])/C=C/c1cccs1
inactive: dose: 100.0 mg/kg/injection, schedule: Q01DX001 (ip), vehicle: Klucel (hydroxypropylcellulose) (HPC) 98 % of control | dose: 200.0 mg/kg/injection, schedule: Q01DX001 (ip), vehicle: Klucel (hydroxypropylcellulose) (HPC) 103 % of control

CN1CCC2(CC1)SSC1(CCN(C)CC1)S2
inactive: [10] 98 % of control | [11] 98 % of control

CN(C)c1ccc(C(=O)c2ccc(N(C)C)c(N)c2)cc1N
inactive: [12] 106 % of control | [13] 92 % of control | [14] 101 % of control

CC(=O)c1cccc(NC(=O)Oc2ccc(C(=O)OCc3ccccc3)cc2)c1
inactive: dose: 100.0 mg/kg/injection, schedule: Q01DX009 (ip), vehicle: Klucel (hydroxypropylcellulose) (HPC) 98 % of control | dose: 200.0 mg/kg/injection, schedule: Q01DX009 (ip), vehicle: Klucel (hydroxypropylcellulose) (HPC) 95 % of control | dose: 400.0 mg/kg/injection, schedule: Q01DX009 (ip), vehicle: Klucel (hydroxypropylcellulose) (HPC) 106 % of control

CC(CCl)OC(=O)CCO (configuration not stated)
inactive: dose: 55.0 mg/kg/injection, schedule: Q01DX Z (ip), vehicle: methylcellulose (MC) 104 % of control | dose: 83.0 mg/kg/injection, schedule: Q01DX Z (ip), vehicle: methylcellulose (MC) 100 % of control | dose: 125.0 mg/kg/injection, schedule: Q01DX Z (ip), vehicle: methylcellulose (MC) 89 % of control

OC1(C2(O)c3ccccc3Oc3ccccc32)c2ccccc2Oc2ccccc21
inactive: [10] 95 % of control | [11] 95 % of control | [15] 97 % of control

Cc1cc(C)c(C(=O)OCCN(C)C)c(C)c1
inactive: [16] 110 % of control | [17] 98 % of control

C/C(=N\O)C(O)c1ccccc1 (configuration not stated)
inactive: dose: 50.0 mg/kg/injection, schedule: Q01DX001 (ip), vehicle: other 97 % of control | [12] 89 % of control | [13] 97 % of control | [14] 92 % of control

C=C(C)C1(CCC)C(=O)NC(=S)NC1=O
inactive: [16] 107 % of control | [17] 111 % of control | dose: 300.0 mg/kg/injection, schedule: Q01DX001 (ip), vehicle: saline 116 % of control

O=c1cc(COc2ccc(O)cc2)[nH]c(=O)[nH]1
inactive: [10] 101 % of control | [11] 104 % of control | [15] 89 % of control

OCC(O)C1OC(Oc2ccccc2)C(O)C(O)C1O (configuration not stated)
inactive: [10] 100 % of control | [11] 98 % of control | [15] 100 % of control

CCCCNC(=O)C(F)(F)F
inactive: [12] 100 % of control | [13] 98 % of control | [14] 98 % of control

C1CC(=NN=C2CCSCC2)CCS1
inactive: [10] 96 % of control | [11] 94 % of control | [15] 123 % of control

COc1ccc(/C=C/c2ccc3ccccc3n2)cc1
inactive: dose: 100.0 mg/kg/injection, schedule: Q04DX002 (ip), vehicle: Klucel (hydroxypropylcellulose) (HPC) 111 % of control | dose: 200.0 mg/kg/injection, schedule: Q04DX002 (ip), vehicle: Klucel (hydroxypropylcellulose) (HPC) 97 % of control | dose: 400.0 mg/kg/injection, schedule: Q04DX002 (ip), vehicle: Klucel (hydroxypropylcellulose) (HPC) 105 % of control

Cc1ccc(Cl)cc1NC(=S)N(C)C
inactive: dose: 100.0 mg/kg/injection, schedule: Q04DX002 (ip), vehicle: saline with Tween-80 98 % of control | dose: 200.0 mg/kg/injection, schedule: Q04DX002 (ip), vehicle: saline with Tween-80 98 % of control

OC1(O)COC(c2ccccc2)OC1
inactive: [5] 96 % of control | dose: 100.0 mg/kg/injection, schedule: Q04DX003 (ip), vehicle: Klucel (hydroxypropylcellulose) (HPC) 105 % of control | [7] 102 % of control | dose: 200.0 mg/kg/injection, schedule: Q04DX003 (ip), vehicle: Klucel (hydroxypropylcellulose) (HPC) 101 % of control | [9] 93 % of control | dose: 400.0 mg/kg/injection, schedule: Q04DX003 (ip), vehicle: Klucel (hydroxypropylcellulose) (HPC) 99 % of control

Cn1[nH]cc(/C=N/C(N)=O)c1=O
inactive: [4] 93 % of control | [6] 91 % of control | [8] 87 % of control

O=S(=O)(F)c1ccc(Cl)cc1
inactive: [2] 101 % of control | dose: 200.0 mg/kg/injection, schedule: Q04DX003 (ip), vehicle: saline with Tween-80 89 % of control

Cc1cccc(Cl)c1N=C=O
inactive: [4] 102 % of control | [6] 102 % of control

CC(=O)Nc1ccc(/C=N/NC(=O)CNC(=O)Nc2cccc(Cl)c2Cl)cc1
inactive: dose: 50.0 mg/kg/injection, schedule: Q01DX009 (ip), vehicle: saline with Tween-80 121 % of control | [1] 90 % of control | [3] 88 % of control

COc1ccc(/C=C2/Oc3cc(O)ccc3C2=O)cc1
inactive: dose: 100.0 mg/kg/injection, schedule: Q01DX001 (ip), vehicle: saline with Tween-80 90 % of control | dose: 200.0 mg/kg/injection, schedule: Q01DX001 (ip), vehicle: saline with Tween-80 93 % of control | dose: 400.0 mg/kg/injection, schedule: Q01DX001 (ip), vehicle: saline with Tween-80 86 % of control

O=C1C2CC3C(CC2C(=O)[N]1[Sn]([c]1ccccc1)([c]1ccccc1)[c]1ccccc1)C1(Cl)C(Cl)=C(Cl)C3(Cl)C1(Cl)Cl (configuration not stated)
inactive: dose: 10.0 mg/kg/injection, schedule: Q01DX001 (ip), vehicle: carboxymethylcellulose (CMC) 98 % of control | dose: 20.0 mg/kg/injection, schedule: Q01DX001 (ip), vehicle: carboxymethylcellulose (CMC) 95 % of control | dose: 40.0 mg/kg/injection, schedule: Q01DX001 (ip), vehicle: carboxymethylcellulose (CMC) 101 % of control | dose: 80.0 mg/kg/injection, schedule: Q01DX001 (ip), vehicle: carboxymethylcellulose (CMC) 101 % of control

NC(=S)c1nnn(Cc2ccccc2)c1N
inactive: [4] 100 % of control | [6] 101 % of control | [8] 102 % of control

O=C(O)C/C(=C/c1ccc2c(c1)OCO2)C(=O)O
inactive: dose: 100.0 mg/kg/injection, schedule: Q01DX009 (sc), vehicle: olive oil, sesame oil, peanut oil 102 % of control | dose: 100.0 mg/kg/injection, schedule: Q04DX003 (sc), vehicle: olive oil, sesame oil, peanut oil 106 % of control | dose: 200.0 mg/kg/injection, schedule: Q01DX009 (sc), vehicle: olive oil, sesame oil, peanut oil 100 % of control | dose: 200.0 mg/kg/injection, schedule: Q04DX003 (sc), vehicle: olive oil, sesame oil, peanut oil 106 % of control | dose: 400.0 mg/kg/injection, schedule: Q01DX009 (sc), vehicle: olive oil, sesame oil, peanut oil 98 % of control | dose: 400.0 mg/kg/injection, schedule: Q04DX003 (sc), vehicle: olive oil, sesame oil, peanut oil 101 % of control

Source: PubChem BioAssay AID248 (DTP/NCI, 2004)
